Reference: ChEMBL document CHEMBL4800722, “Data for DCP probe BI 605906” (2021)

Columns and labels:
[1] = biological target: Leucine-rich repeat serine/threonine-protein kinase 2 (Homo sapiens) (UniProt Q5S007); assay: LRRK2 Invitrogen Lab (UK) kinase screen (BI); conditions: Compound concentration 1.0 uM
[2] = biological target: CDK4/Cyclin D3 (Homo sapiens) (UniProt P11802+P30281); conditions: Compound concentration 1.0 uM
[3] = biological target: Serine/threonine-protein kinase ULK3 (Homo sapiens) (UniProt Q6PHR2); conditions: Compound concentration 1.0 uM
[4] = biological target: T1, Cyclin-G-associated kinase (Homo sapiens) (UniProt O14976)
T1 sequence (whole entry): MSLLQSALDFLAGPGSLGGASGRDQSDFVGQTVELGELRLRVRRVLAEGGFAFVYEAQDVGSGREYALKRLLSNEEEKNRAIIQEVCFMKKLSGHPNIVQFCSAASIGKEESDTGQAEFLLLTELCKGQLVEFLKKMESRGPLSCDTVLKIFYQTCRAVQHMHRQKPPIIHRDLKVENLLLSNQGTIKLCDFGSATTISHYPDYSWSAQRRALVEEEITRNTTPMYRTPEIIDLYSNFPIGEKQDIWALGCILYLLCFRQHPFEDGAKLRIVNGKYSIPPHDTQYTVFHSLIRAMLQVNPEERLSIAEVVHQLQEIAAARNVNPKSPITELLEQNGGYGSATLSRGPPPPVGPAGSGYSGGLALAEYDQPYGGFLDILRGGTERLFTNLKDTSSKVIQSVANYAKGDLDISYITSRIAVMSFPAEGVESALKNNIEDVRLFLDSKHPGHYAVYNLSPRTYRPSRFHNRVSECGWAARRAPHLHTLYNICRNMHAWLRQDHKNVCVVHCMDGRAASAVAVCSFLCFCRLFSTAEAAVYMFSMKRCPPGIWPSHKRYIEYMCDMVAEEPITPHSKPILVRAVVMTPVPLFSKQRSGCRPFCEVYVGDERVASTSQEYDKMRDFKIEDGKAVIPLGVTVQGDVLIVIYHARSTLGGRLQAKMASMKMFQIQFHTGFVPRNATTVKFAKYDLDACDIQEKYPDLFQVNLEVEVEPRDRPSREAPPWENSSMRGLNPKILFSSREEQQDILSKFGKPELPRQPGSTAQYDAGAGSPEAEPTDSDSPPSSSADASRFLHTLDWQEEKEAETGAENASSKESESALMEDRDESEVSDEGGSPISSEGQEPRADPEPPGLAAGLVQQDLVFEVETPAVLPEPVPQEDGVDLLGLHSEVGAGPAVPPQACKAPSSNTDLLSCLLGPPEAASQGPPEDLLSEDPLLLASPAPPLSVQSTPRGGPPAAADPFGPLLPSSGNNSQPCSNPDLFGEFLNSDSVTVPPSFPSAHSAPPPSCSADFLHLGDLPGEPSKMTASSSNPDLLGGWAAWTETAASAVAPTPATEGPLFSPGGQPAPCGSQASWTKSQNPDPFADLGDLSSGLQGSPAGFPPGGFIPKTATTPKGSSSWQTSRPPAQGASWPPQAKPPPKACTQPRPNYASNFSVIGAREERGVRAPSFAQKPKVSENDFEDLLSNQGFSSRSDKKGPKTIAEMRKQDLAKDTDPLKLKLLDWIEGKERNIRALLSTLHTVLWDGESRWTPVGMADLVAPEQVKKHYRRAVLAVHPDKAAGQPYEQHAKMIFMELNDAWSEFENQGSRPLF

[5] = biological target: DNA-dependent protein kinase catalytic subunit (Homo sapiens) (UniProt P78527); conditions: Compound concentration 1.0 uM
[6] = biological target: Muscarinic acetylcholine receptor M4 (Homo sapiens) (UniProt P08173); conditions: Compound concentration 10.0 uM
[7] = biological target: Thromboxane-A synthase (Homo sapiens) (UniProt P24557); assay: THRO SYN(HU) Eurofins SafetyScreen44 (BI); conditions: Compound concentration 10.0 uM
[8] = biological target: Polyunsaturated fatty acid lipoxygenase ALOX15 (Oryctolagus cuniculus) (UniProt P12530); assay: 15LO Eurofins SafetyScreen44 (BI); conditions: Compound concentration 10.0 uM
[9] = biological target: Epithelial discoidin domain-containing receptor 1 (Homo sapiens) (UniProt Q08345); assay: DDR1 Invitrogen Lab (UK) kinase screen (BI); conditions: Compound concentration 1.0 uM
[10] = biological target: 3-phosphoinositide-dependent protein kinase 1 (Homo sapiens) (UniProt O15530); conditions: Compound concentration 10.0 uM
[11] = biological target: Mitogen-activated protein kinase 12 (Homo sapiens) (UniProt P53778); conditions: Compound concentration 1.0 uM
[12] = biological target: Mu-type opioid receptor (Homo sapiens) (UniProt P35372); conditions: Compound concentration 10.0 uM
Chain of Mu-type opioid receptor (Homo sapiens) (P35372 whole entry): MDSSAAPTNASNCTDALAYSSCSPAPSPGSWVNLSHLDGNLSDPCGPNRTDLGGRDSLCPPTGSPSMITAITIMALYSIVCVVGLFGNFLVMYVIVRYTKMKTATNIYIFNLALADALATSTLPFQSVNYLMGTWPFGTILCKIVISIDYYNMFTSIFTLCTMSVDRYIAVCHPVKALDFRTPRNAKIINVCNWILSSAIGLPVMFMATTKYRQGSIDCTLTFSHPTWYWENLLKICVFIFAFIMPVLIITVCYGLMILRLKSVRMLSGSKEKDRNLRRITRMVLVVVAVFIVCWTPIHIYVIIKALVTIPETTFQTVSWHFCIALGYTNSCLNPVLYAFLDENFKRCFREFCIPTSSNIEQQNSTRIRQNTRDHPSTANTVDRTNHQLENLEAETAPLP

[13] = biological target: Homeodomain-interacting protein kinase 3 (Homo sapiens) (UniProt Q9H422); conditions: Compound concentration 1.0 uM
Chain of Homeodomain-interacting protein kinase 3 (Homo sapiens) (Q9H422 whole entry, looked up): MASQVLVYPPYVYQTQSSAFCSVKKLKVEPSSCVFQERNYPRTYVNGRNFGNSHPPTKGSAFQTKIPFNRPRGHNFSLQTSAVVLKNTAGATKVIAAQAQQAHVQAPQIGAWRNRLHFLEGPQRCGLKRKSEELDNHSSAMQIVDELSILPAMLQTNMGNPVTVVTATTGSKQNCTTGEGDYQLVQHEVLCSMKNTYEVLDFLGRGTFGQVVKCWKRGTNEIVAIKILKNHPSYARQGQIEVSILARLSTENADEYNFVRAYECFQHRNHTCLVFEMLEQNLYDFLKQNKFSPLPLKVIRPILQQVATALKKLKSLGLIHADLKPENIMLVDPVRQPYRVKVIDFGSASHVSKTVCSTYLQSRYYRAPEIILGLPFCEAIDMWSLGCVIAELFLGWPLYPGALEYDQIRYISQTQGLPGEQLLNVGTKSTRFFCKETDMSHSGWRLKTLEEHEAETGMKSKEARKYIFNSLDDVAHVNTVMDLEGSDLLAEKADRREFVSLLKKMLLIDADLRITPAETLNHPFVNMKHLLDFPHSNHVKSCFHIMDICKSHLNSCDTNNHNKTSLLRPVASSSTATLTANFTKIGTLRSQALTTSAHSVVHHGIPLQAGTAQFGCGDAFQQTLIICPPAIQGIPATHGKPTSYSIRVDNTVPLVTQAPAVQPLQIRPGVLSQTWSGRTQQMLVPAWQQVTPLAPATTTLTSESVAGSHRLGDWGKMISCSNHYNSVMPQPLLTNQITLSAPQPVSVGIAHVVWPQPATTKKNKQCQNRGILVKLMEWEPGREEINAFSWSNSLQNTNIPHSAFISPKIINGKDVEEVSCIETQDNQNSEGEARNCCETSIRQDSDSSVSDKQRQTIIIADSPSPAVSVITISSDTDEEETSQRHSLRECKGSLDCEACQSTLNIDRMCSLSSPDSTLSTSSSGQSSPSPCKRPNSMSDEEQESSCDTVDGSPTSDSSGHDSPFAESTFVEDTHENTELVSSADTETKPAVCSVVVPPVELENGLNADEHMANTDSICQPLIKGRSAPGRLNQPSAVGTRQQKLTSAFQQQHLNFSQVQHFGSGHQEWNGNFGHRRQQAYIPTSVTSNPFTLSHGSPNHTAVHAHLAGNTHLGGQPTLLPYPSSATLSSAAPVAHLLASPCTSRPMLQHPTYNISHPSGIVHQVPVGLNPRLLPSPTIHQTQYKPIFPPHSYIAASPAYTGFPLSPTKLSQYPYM

[14] = tested on: PI3-kinase p110-alpha/p85-alpha (Homo sapiens), P27986+P42336 [E545K]; conditions: Compound concentration 1.0 uM
[15] = biological target: Ribosomal protein S6 kinase alpha-3 (Homo sapiens) (UniProt P51812)
Chain of Ribosomal protein S6 kinase alpha-3 (Homo sapiens) (P51812 whole entry): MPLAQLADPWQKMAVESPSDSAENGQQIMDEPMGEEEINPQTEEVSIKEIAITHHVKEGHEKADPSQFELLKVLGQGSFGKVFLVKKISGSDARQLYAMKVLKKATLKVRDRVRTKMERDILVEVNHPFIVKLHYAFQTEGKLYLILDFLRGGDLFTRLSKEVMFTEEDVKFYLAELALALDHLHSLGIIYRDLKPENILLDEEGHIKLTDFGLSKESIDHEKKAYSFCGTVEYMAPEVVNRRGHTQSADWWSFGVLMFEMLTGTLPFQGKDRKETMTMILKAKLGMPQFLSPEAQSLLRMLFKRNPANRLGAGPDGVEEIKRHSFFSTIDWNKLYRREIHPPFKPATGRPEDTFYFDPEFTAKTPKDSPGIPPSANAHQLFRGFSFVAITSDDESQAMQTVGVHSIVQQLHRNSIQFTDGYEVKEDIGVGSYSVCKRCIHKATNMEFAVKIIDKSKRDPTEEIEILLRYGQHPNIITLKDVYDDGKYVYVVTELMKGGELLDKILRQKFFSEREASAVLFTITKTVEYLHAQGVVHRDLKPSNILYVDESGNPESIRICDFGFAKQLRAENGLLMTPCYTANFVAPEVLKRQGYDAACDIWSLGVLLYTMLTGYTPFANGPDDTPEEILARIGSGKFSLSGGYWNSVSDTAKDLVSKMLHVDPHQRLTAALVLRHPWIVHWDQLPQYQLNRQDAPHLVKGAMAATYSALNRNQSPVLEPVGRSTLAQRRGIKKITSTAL

[16] = biological target: Tyrosine-protein kinase ZAP-70 (Homo sapiens) (UniProt P43403); conditions: Compound concentration 1.0 uM
Chain of Tyrosine-protein kinase ZAP-70 (Homo sapiens) (P43403 whole entry): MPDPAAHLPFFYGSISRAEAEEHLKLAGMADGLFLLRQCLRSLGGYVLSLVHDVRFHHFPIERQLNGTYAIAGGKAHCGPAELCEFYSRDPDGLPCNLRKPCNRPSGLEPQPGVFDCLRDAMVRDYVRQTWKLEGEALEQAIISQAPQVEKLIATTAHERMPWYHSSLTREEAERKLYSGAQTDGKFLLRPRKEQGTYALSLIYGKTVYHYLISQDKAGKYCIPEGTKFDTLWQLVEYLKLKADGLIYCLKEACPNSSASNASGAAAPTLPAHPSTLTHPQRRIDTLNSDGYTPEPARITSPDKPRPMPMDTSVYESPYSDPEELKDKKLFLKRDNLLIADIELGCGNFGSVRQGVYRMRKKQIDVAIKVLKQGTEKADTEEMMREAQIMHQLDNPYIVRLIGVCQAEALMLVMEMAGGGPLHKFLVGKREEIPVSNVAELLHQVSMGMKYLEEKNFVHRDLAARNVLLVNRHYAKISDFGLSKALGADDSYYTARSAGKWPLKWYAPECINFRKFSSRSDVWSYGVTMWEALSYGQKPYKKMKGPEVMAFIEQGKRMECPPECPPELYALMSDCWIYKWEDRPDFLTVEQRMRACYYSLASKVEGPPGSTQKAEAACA

[17] = biological target: Voltage-dependent N-type calcium channel subunit alpha-1B (Rattus norvegicus) (UniProt Q02294); assay: CA+/N/RA Eurofins SafetyScreen44 (BI); conditions: Compound concentration 10.0 uM
[18] = biological target: Tyrosine-protein kinase FRK (Homo sapiens) (UniProt P42685); conditions: Compound concentration 1.0 uM
Chain of Tyrosine-protein kinase FRK (Homo sapiens) (P42685 whole entry): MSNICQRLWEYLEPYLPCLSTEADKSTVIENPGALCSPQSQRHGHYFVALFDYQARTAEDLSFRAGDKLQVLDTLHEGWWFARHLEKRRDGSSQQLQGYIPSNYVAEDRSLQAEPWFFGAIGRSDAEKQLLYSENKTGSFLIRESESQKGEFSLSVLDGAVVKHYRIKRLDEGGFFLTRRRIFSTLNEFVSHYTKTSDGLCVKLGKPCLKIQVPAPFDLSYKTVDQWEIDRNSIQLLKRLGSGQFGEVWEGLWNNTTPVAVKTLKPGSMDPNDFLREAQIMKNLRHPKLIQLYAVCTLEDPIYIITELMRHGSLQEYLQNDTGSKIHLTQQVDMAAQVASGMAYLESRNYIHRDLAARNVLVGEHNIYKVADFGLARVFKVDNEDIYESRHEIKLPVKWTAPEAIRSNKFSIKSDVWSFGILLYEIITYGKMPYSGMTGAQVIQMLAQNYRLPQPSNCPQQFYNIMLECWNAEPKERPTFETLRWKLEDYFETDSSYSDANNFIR

[19] = biological target: 5-hydroxytryptamine receptor 5A (Homo sapiens) (UniProt P47898); conditions: Compound concentration 10.0 uM
[20] = biological target: Proto-oncogene tyrosine-protein kinase Src (Homo sapiens) (UniProt P12931); assay: SRC N1 Invitrogen Lab (UK) kinase screen (BI); conditions: Compound concentration 1.0 uM
Chain of Proto-oncogene tyrosine-protein kinase Src (Homo sapiens) (P12931 2-536 limits assumed): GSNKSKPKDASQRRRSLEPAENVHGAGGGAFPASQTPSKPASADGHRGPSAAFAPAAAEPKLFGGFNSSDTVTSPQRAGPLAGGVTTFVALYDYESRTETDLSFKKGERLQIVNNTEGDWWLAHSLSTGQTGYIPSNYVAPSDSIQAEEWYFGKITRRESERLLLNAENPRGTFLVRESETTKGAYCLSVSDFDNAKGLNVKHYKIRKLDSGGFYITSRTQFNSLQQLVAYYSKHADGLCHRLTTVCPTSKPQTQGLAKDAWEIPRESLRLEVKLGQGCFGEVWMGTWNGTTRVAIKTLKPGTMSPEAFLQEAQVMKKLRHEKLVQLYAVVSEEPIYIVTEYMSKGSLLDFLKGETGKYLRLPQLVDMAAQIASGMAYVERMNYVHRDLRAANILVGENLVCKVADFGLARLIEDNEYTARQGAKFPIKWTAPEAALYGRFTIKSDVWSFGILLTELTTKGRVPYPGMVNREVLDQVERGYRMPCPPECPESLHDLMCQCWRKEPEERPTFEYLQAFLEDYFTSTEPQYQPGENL

[21] = biological target: Casein kinase II subunit alpha' (Homo sapiens) (UniProt P19784); conditions: Compound concentration 1.0 uM
[22] = biological target: Mitogen-activated protein kinase 10 (Homo sapiens) (UniProt P53779); conditions: Compound concentration 1.0 uM
Chain of Mitogen-activated protein kinase 10 (Homo sapiens) (P53779 whole entry): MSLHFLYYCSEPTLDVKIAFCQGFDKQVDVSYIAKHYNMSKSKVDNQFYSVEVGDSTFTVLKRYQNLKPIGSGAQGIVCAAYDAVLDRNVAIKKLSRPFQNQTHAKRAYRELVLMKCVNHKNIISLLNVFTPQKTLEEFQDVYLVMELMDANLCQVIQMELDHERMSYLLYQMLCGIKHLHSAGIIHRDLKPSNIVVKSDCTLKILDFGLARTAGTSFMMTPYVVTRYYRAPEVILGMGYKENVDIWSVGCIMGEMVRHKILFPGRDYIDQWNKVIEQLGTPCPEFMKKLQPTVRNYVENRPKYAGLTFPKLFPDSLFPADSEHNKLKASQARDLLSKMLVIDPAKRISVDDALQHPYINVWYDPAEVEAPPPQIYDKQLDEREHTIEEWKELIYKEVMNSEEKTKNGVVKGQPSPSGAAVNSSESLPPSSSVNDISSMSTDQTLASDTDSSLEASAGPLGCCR

[23] = biological target: Atypical kinase COQ8A, mitochondrial (Homo sapiens) (UniProt Q8NI60); assay: ADCK3 Invitrogen Lab (UK) kinase screen (BI); conditions: Compound concentration 1.0 uM
[24] = biological target: Histamine H1 receptor (Homo sapiens) (UniProt P35367); conditions: Compound concentration 10.0 uM
Chain of Histamine H1 receptor (Homo sapiens) (P35367 whole entry): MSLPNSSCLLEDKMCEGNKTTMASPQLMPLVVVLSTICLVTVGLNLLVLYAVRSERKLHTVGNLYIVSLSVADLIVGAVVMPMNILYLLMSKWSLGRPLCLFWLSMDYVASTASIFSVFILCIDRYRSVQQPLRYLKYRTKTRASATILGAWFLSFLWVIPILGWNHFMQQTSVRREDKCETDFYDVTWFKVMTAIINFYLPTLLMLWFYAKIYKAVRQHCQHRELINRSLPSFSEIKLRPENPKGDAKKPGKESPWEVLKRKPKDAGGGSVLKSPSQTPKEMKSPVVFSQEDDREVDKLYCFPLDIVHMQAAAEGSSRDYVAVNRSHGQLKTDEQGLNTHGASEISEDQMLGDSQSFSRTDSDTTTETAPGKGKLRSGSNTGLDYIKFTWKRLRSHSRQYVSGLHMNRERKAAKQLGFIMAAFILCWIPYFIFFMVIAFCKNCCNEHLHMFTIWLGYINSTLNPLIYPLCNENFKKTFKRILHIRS

[25] = biological target: Cyclin-dependent kinase 2/cyclin A (Homo sapiens) (UniProt P24941+P20248+P78396); assay: CDK2/CYCLINA DUNDEE kinase screen (BI); format: protein-complex assay; conditions: Compound concentration 10.0 uM
[26] = biological target: Cyclin-G-associated kinase (Homo sapiens, UniProt O14976); assay: Dose response measurement (GAK)

SMILES: CCC(F)(F)c1cc(N2CCC(S(C)(=O)=O)CC2)nc2sc(C(N)=O)c(N)c12 [BI-605906]
- residual activity [1]: 62%
- residual activity [2]: 97%
- residual activity [3]: 95%
- residual activity ([4]; Compound concentration 0.001 uM): 99%
- residual activity ([4]; Compound concentration 1.0 uM): 7%
- residual activity ([4]; Compound concentration 20.0 uM): 6%
- residual activity [5]: 90%
- inhibition [6]: 13.3%
- residual activity [7]: 86%
- residual activity [8]: 79%
- residual activity [9]: 84%
- residual activity [10]: 89.1%
- residual activity [11]: 99%
- inhibition [12]: 5.18%
- residual activity [13]: 95%
- residual activity [14]: 100%
- residual activity ([15]; Compound concentration 1.0 uM): 94%
- residual activity ([15]; Compound concentration 10.0 uM): 95%
- residual activity [16]: 95%
- residual activity [17]: 86%
- residual activity [18]: 92%
- inhibition [19]: 6.16%
- residual activity [20]: 88%
- residual activity [21]: 87%
- residual activity [22]: 101%
- residual activity [23]: 67%
- inhibition [24]: 9.22%
- residual activity [25]: 78%
- IC50 [26]: 188 nM
